Source: patent US4166182A, “6-N-Propyl-8-methoxymethyl or methylmercaptomethylergolines and related compounds” (priority 1978, dated 1979)
Structures can show the parent of a compound that is named as a salt. Where two headings read alike, the source gives them in different places.

Legend:
[1] = tested on: Parkinsonism; details: in vivo; cited from earlier work
[2] = tested on: prolactin; details: cited from earlier work
[3] = tested on: 6-hydroxydopamine-lesioned rats; test: Turning behavior in 6-hydroxydopamine-lesioned (nigro-neostriatal-lesioned) rats; format: in vivo, rat; details: for Latency of Effect: 1 mg./kg. (Table I); for responders at 1 mg/kg: Rattus norvegicus, read-out: % of Rats Exhibiting Turning Behavior
Method: In this test, nigro-neostriatal-lesioned rats are employed, which are prepared by the procedure of Ungerstedt and Arbuthnott, Brain Res, 24, 485 (1970). A compound having dopamine agonist activity causes the rats to turn in circles contralateral to the side of the lesion. After a latency period, which varies from compound to compound, the number of turns is counted over a 15-minute period.
The compounds were dissolved in water and the aqueous solution injected into the rat by the intraperitoneal route.

[4] = tested on: prolactin; test: Inhibition of serum prolactin in reserpine-treated male rats; format: in vivo, Sprague-Dawley rat; parameters: Serum Prolactin Level: unit not given here; details: for Serum Prolactin Level: reserpine-pretreated, controls: Exp. 1 30.4 ± 3.4, Exp. 2 55.2 ± 4.1, Exp. 3 42.3 ± 7.3; for inhibition in vivo at 0.05 mg/kg: Rattus norvegicus, read-out: Percent Inhibition of Serum Prolactin
Method: Adult male rats of the Sprague-Dawley strain weighing about 200 g. were housed in an air-conditioned room with controlled lighting (lights on 6 a.m.-8 p.m.) and fed lab chow and water ad libitum. Each rat received an intraperitoneal injection of 2.0 mg. of reserpine in aqueous suspension 18 hours before administration of the ergoline derivative. The purpose of the reserpine was to keep prolactin levels uniformly elevated. The compounds under test were dissolved in 10 percent ethanol at a concentration of 10 mcg/ml. and were injected intraperitoneally at a standard dose of 50 mcg/kg. Each compound was administered to a group of 10 rats, and a control group of 10 intact males received an equivalent amount of 10 percent ethanol. One hour after treatment all rats were killed by decapitation, and 150 μl aliquots of serum were assayed for prolactin. The results were evaluated statistically using Student's "t" test to calculate the level of significance, "p", of the changes in prolactin level.

[5] = tested on: serotonin; test: Serotonin agonism
[6] = tested on: dopamine receptors; details: cited from earlier work
[7] = 50 mcg/kg IP, 1 hour after treatment

In the case of `CC(C)C[C@H]1C(=O)N2CCC[C@H]2[C@]2(O)O[C@](NC(=O)[C@@H]3C=C4c5cccc6[nH]c(Br)c(c56)C[C@H]4N(C)C3)(C(C)C)C(=O)N12` [2-bromo-α-ergokryptine], the “usefulness in the treatment of Parkinsonism (in words)” value [1] is given as “useful in the treatment of Parkinsonism” and the “activity as prolactin inhibitors (in words)” value [2] is given as “activity as prolactin inhibitors”.
With `CCCN1C[C@H](CSC)C[C@@H]2c3cccc4[nH]c(Br)c(c34)C[C@H]21` [D-2-bromo-6-n-propyl-8β-methylmercaptomethylergoline mesylate] the “Duration of Effect” value ([3]; IP, 1 mg./kg.) was 1 h, the “Latency of Effect” value ([3]; IP) was 5 min and the responders at 1 mg/kg ([3]; ip) was 100%. For the same compound, the “Serum Prolactin Level” value [4, 7] was 4.6 ± 0.4 and the inhibition in vivo at 0.05 mg/kg ([4]; ip, 1 h) was 89%.
In the case of `CCN1C[C@H](CSC)C[C@@H]2c3cccc4[nH]cc(c34)C[C@H]21` [D-6-ethyl-8β-methylmercaptomethylergoline mesylate], the “Duration of Effect” value ([3]; IP, 1 mg./kg.) is reported as no less than 2 h, the “Latency of Effect” value ([3]; IP) is reported as 9 min and the responders at 1 mg/kg ([3]; ip) is reported as 100%. The “Serum Prolactin Level” value [4, 7] was 3.9 ± 0.4 and the inhibition in vivo at 0.05 mg/kg ([4]; ip, 1 h) was 91%.
For `CN1CC(CC#N)C[C@@H]2c3cccc4[nH]cc(c34)C[C@H]21` (stereo partly drawn) [D-6-methyl-8-cyanomethylergoline], the “activity as prolactin inhibitors (in words)” value [2] is given as “activity as prolactin inhibitors”.
With `CSC[C@@H]1C[C@@H]2c3cccc4[nH]cc(c34)C[C@H]2N(C)C1` [D-6-methyl-8β-methylmercaptomethylergoline mesylate, reference compound] the “Duration of Effect” value ([3]; IP, 1 mg./kg.) was ~ 2 hours, the “Latency of Effect” value ([3]; IP) was 30 to 45 min and the responders at 1 mg/kg ([3]; ip) was 50%. It also gave an inhibition in vivo at 0.05 mg/kg ([4]; ip, 1 h) of 58%.
For `CCCN1C[C@H](CSC)C[C@@H]2c3cccc4[nH]cc(c34)C[C@H]21` [D-6-n-Propyl-8β-methylmercaptomethylergoline], the “serotonin agonist or antagonist (in words)” value [5] was “serotonin agonists rather than serotonin antagonists”.
In the case of `CCCN1CC(CSC)=C[C@@H]2c3cccc4[nH]cc(c34)C[C@H]21` [D-6-n-propyl-8-methylmercaptomethyl-8-ergolene maleate], the “Duration of Effect” value ([3]; IP, 1 mg./kg.) is reported as 1 h, the “Latency of Effect” value ([3]; IP) is reported as 4 min and the responders at 1 mg/kg ([3]; ip) is reported as 100%. The “Serum Prolactin Level” value [4, 7] was 3.9 ± 0.2 and the inhibition in vivo at 0.05 mg/kg ([4]; ip, 1 h) was 91%.
With `CCCN1C[C@H](COC)C[C@@H]2c3cccc4[nH]cc(c34)C[C@H]21` [D-6-n-propyl-8β-methoxymethylergoline methanesulfonate] the “Duration of Effect” value ([3]; IP, 1 mg./kg.) was no less than 2 h, the “Latency of Effect” value ([3]; IP) was 6 min and the responders at 1 mg/kg ([3]; ip) was 100%. The “Serum Prolactin Level” value [4, 7] was 2.4 ± 0.2 and the inhibition in vivo at 0.05 mg/kg ([4]; ip, 1 h) was 96%.
With `CCCN1C[C@H](CSC)C=C2c3cccc4[nH]cc(c34)C[C@H]21` [D-6-n-propyl-8β-methylmercaptomethyl-9-ergolene] the “Duration of Effect” value ([3]; IP, 1 mg./kg.) was no less than 2 h, the “Latency of Effect” value ([3]; IP) was 4 min and the responders at 1 mg/kg ([3]; ip) was 100%. It also gave an inhibition in vivo at 0.05 mg/kg ([4]; ip, 1 h) of 81%.
In the case of `CCCN1C[C@H](CSC)C[C@@H]2c3cccc4[nH]cc(c34)C[C@H]21` [D-6-n-propyl-8β-methylmercaptomethylergoline methanesulfonate], the responders at 1 mg/kg ([3]; IP, 1 mg./kg., aqueous solution) is reported as 100%, the “times more potent in the turning behavior test than the corresponding D-6-methyl derivative” value ([3]; from dose response curves) is reported as “about 30 times” and the inhibition in vivo at 0.05 mg/kg ([4]; 50 mcg/kg IP, 1 hour after treatment, versus control of same experiment) is reported as 95%. For the same compound, the “times more potent as a prolactin inhibitor than the corresponding D-6-methyl compound” value ([4]; from dose response curves) was “about 100 times”.
With `CCCN1C[C@H](C[S+](C)[O-])C[C@@H]2c3cccc4[nH]cc(c34)C[C@H]21` (stereo partly drawn) [D-6-n-propyl-8β-methylsulfinylmethylergoline mesylate] the “Duration of Effect” value ([3]; IP, 1 mg./kg.) was 1 h, the “Latency of Effect” value ([3]; IP) was 7 min and the responders at 1 mg/kg ([3]; ip) was 100%. For the same compound, the inhibition in vivo at 0.05 mg/kg ([4]; ip, 1 h) was 92%.
For `CC(C)[C@H]1C(=O)N2CCC[C@H]2[C@]2(O)O[C@](NC(=O)[C@@H]3C[C@@H]4c5cccc6[nH]cc(c56)C[C@H]4N(C)C3)(C(C)C)C(=O)N12` [dihydroergocornine], the “activity as prolactin inhibitors (in words)” value [2] is listed as “activity as prolactin inhibitors”.
For `CC(C)[C@H]1C(=O)N2CCC[C@H]2[C@]2(O)O[C@](NC(=O)[C@@H]3C=C4c5cccc6[nH]cc(c56)C[C@H]4N(C)C3)(C(C)C)C(=O)N12` [ergocornine], the “dopamine receptor stimulation (in words)” value [6] is listed as “stimulate dopamine receptors” and the “activity as prolactin inhibitors (in words)” value [2] is listed as “activity as prolactin inhibitors”.
In the case of `CN1C[C@H](CC#N)C[C@@H]2c3cccc4[nH]c(Cl)c(c34)C[C@H]21` [lergotrile], the “usefulness in the treatment of Parkinsonism (in words)” value [1] is listed as “useful in the treatment of Parkinsonism”.
